Pest or weed control and inhibition of growth data for 22 compounds are collected here from US20200187502A1, “MICROBIOCIDAL OXADIAZOLE DERIVATIVES” (SYNGENTA PARTICIPATIONS AG, priority 2017, published 2020).

Structures are written as SMILES.

The subject of test [1] is Puccinia recondita f. Sp. Tritici. Put plainly: Fungicidal activity, wheat leaf disc curative (brown rust). It counts as in vivo. Particulars: foliar, 200 ppm in the applied formulation, wheat leaf segments cv. Kanzler, curative (applied 1 day after inoculation), compared to untreated control, 6 to 8 days after application, read-out: disease control. The method, then: (§1) Leaf disks or leaf segments of various plant species are cut from plants grown in a greenhouse. The cut leaf disks or segments are placed in multiwell plates (24-well format) onto water agar. The leaf disks are sprayed with a test solution before (preventative) or after (curative) inoculation. Compounds to be tested are prepared as DMSO solutions (max. 10 mg/ml) which are diluted to the appropriate concentration with 0.025% Tween20 just before spraying. The inoculated leaf disks or segments are incubated under defined conditions (temperature, relative humidity, light, etc.) according to the respective test system. A single evaluation of disease level is carried out 3 to 14 days after inoculation, depending on the pathosystem. Percent disease control relative to the untreated check leaf disks or segments is then calculated.
Wheat leaf segments cv. Kanzler are placed on agar in multiwell plates (24-well format). The leaf segments are then inoculated with a spore suspension of the fungus. Plates were stored in darkness at 19° C. and 75% relative humidity. The formulated test compound diluted in water was applied 1 day after inoculation. The leaf segments were incubated at 19° C. and 75% relative humidity under a light regime of 12 hours light/12 hours darkness in a climate cabinet and the activity of a compound was assessed as percent disease control compared to untreated when an appropriate level of disease damage appears in untreated check leaf segments (6 to 8 days after application).
(§2) The following compounds at 200 ppm in the applied formulation give at least 80% disease control in this test when compared to untreated control leaf disks under the same conditions, which show extensive disease development.

For test [2], the system named is Glomerella lacenarium (Colletotrichum lacenarium). Put plainly: Fungicidal activity, liquid culture, cucumber preventative (anthracnose). The settings on record: 20 ppm in the applied formulation, liquid culture in PDB, inhibition of growth measured photometrically 3 to 4 days after application, compared to untreated control, read-out: disease control. Format: cell-based. The method, then:
Mycelia fragments or conidia suspensions of a fungus prepared either freshly from liquid cultures of the fungus or from cryogenic storage, are directly mixed into nutrient broth. DMSO solutions of the test compound (max. 10 mg/ml) are diluted with 0.025% Tween20 by a factor of 50 and 10 μl of this solution is pipetted into a microtiter plate (96-well format). The nutrient broth containing the fungal spores/mycelia fragments is then added to give an end concentration of the tested compound. The test plates are incubated in the dark at 24° C. and 96% relative humidity. The inhibition of fungal growth is determined photometrically after 2 to 7 days, depending on the pathosystem, and percent antifungal activity relative to the untreated check is calculated.
Conidia of the fungus from cryogenic storage are directly mixed into nutrient broth (PDB—potato dextrose broth). After placing a (DMSO) solution of test compound into a microtiter plate (96-well format), the nutrient broth containing the fungal spores is added. The test plates are incubated at 24° C. and the inhibition of growth is measured photometrically 3 to 4 days after application.
The following compounds at 20 ppm in the applied formulation give at least 80% disease control in this test when compared to untreated control under the same conditions, which show extensive disease development.

The test system of test [3] is Puccinia recondita f. Sp. Tritici. Put plainly: Fungicidal activity, wheat leaf disc preventative (brown rust). It counts as in vivo. Particulars: foliar, 200 ppm in the applied formulation, wheat leaf segments cv. Kanzler, compared to untreated control, 7 to 9 days after application, read-out: disease control. The method, then:
as §1
Wheat leaf segments cv. Kanzler were placed on agar in multiwell plates (24-well format) and sprayed with the formulated test compound diluted in water. The leaf disks were inoculated with a spore suspension of the fungus 1 day after application. The inoculated leaf segments were incubated at 19° C. and 75% relative humidity (rh) under a light regime of 12 hours light/12 hours darkness in a climate cabinet and the activity of a compound was assessed as percent disease control compared to untreated when an appropriate level of disease damage appears in untreated check leaf segments (7 to 9 days after application).
as §2

On to `CCC(C)C(=O)N(Cc1ccc(-c2noc(C(F)(F)F)n2)s1)C1CC1` (stereo not shown) [Compound 4.57, N-cyclopropyl-2-methyl-N-[[5-[5-(trifluoromethyl)-1,2,4-oxadiazol-3-yl]-2-thienyl]methyl]butanamide], for which, in test [1], the pest or weed control at 200 ppm is at least 80%. In addition, in test [2], the inhibition of growth at 20 ppm was at least 80%.

For `CC(C)N(Cc1ccc(-c2noc(C(F)(F)F)n2)s1)C(=O)C1CC1(F)F` (stereo not shown) [Compound 5.33, 2,2-difluoro-N-isopropyl-N-[[5-[5-(trifluoromethyl)-1,2,4-oxadiazol-3-yl]-2-thienyl]methyl]cyclopropanecarboxamide], the pest or weed control at 200 ppm in test [1] was at least 80%. Moreover, the inhibition of growth at 20 ppm in test [2] was at least 80%. Turning to `CCC(C)C(=O)N(Cc1ccc(-c2noc(C(F)(F)F)n2)s1)OCC(F)F` (stereo not shown) [Compound 4.66, N-(2,2-difluoroethoxy)-2-methyl-N-[[5-[5-(trifluoromethyl)-1,2,4-oxadiazol-3-yl]-2-thienyl]methyl]butanamide], in test [1], the pest or weed control at 200 ppm is at least 80%. Moreover, in test [2], the inhibition of growth at 20 ppm is at least 80%. In the case of `O=C(CC(F)(F)F)N(Cc1ccc(-c2noc(C(F)(F)F)n2)s1)OCC(F)F` [Compound 4.68, N-(2,2-difluoroethoxy)-3,3,3-trifluoro-N-[[5-[5-(trifluoromethyl)-1,2,4-oxadiazol-3-yl]-2-thienyl]methyl]propanamide], in test [1], the pest or weed control at 200 ppm is at least 80%. Besides, the inhibition of growth at 20 ppm in test [2] is at least 80%. With `Cc1ccc(S(=O)(=O)N(C)Cc2ccc(-c3noc(C(F)(F)F)n3)s2)cc1` [Compound 6.28, N,4-dimethyl-N-[[5-[5-(trifluoromethyl)-1,2,4-oxadiazol-3-yl]-2-thienyl]methyl]benzenesulfonamide], the pest or weed control at 200 ppm in test [1] is at least 80%. With `COC(=O)N(Cc1ccc(-c2noc(C(F)(F)F)n2)s1)OC` [Compound 1.5, methyl N-methoxy-N-[[5-[5-(trifluoromethyl)-1,2,4-oxadiazol-3-yl]-2-thienyl]methyl]carbamate], in test [2], the inhibition of growth at 20 ppm was at least 80%. In addition, the pest or weed control at 200 ppm in test [3] was at least 80%. Regarding `CCS(=O)(=O)N(C)Cc1ccc(-c2noc(C(F)(F)F)n2)s1` [Compound 6.25, N-methyl-N-[[5-[5-(trifluoromethyl)-1,2,4-oxadiazol-3-yl]-2-thienyl]methyl]ethanesulfonamide], in test [2], the inhibition of growth at 20 ppm is at least 80%. Further, the pest or weed control at 200 ppm in test [3] was at least 80%.

On to `O=C(C1CCC1)N(Cc1ccc(-c2noc(C(F)(F)F)n2)s1)OCC(F)F` [Compound 5.47, N-(2,2-difluoroethoxy)-N-[[5-[5-(trifluoromethyl)-1,2,4-oxadiazol-3-yl]-2-thienyl]methyl]cyclobutanecarboxamide], for which the inhibition of growth at 20 ppm in test [2] is at least 80%. Also, the pest or weed control at 200 ppm in test [3] was at least 80%. Turning to `CCN(Cc1ccc(-c2noc(C(F)(F)F)n2)s1)C(=O)C(=O)CC(C)C` [Compound 6.44, N-ethyl-4-methyl-2-oxo-N-[[5-[5-(trifluoromethyl)-1,2,4-oxadiazol-3-yl]-2-thienyl]methyl]pentanamide], the inhibition of growth at 20 ppm in test [2] is at least 80%. For the same compound, the pest or weed control at 200 ppm in test [3] is at least 80%.

Take `CCCS(=O)(=O)N(C)Cc1ccc(-c2noc(C(F)(F)F)n2)s1` [Compound 6.31, N-methyl-N-[[5-[5-(trifluoromethyl)-1,2,4-oxadiazol-3-yl]-2-thienyl]methyl]propane-1-sulfonamide]: the inhibition of growth at 20 ppm in test [2] is at least 80%. For the same compound, the pest or weed control at 200 ppm in test [3] was at least 80%.

`CCN(Cc1ccc(-c2noc(C(F)(F)F)n2)s1)S(=O)(=O)C1CC1` [Compound 6.19, N-ethyl-N-[[5-[5-(trifluoromethyl)-1,2,4-oxadiazol-3-yl]-2-thienyl]methyl]cyclopropanesulfonamide]: in test [2], the inhibition of growth at 20 ppm is at least 80%. Also, the pest or weed control at 200 ppm in test [3] was at least 80%. Consider `CC(C)(C)C(=O)C(=O)N(Cc1ccc(-c2noc(C(F)(F)F)n2)s1)C1CC1` [Compound 6.55, N-cyclopropyl-3,3-dimethyl-2-oxo-N-[[5-[5-(trifluoromethyl)-1,2,4-oxadiazol-3-yl]-2-thienyl]methyl]butanamide], for which the inhibition of growth at 20 ppm in test [2] was at least 80%. Besides, in test [3], the pest or weed control at 200 ppm is at least 80%. With `O=C(C(=O)N(Cc1ccc(-c2noc(C(F)(F)F)n2)s1)OCC(F)F)c1ccccc1` [Compound 6.61, N-(2,2-difluoroethoxy)-2-oxo-2-phenyl-N-[[5-[5-(trifluoromethyl)-1,2,4-oxadiazol-3-yl]-2-thienyl]methyl]acetamide], the inhibition of growth at 20 ppm in test [2] is at least 80%. Further, in test [3], the pest or weed control at 200 ppm is at least 80%.

For the compound `O=C(C1CCC1)N(Cc1ccc(-c2noc(C(F)(F)F)n2)s1)C1CC1` [Compound 5.38, N-cyclopropyl-N-[[5-[5-(trifluoromethyl)-1,2,4-oxadiazol-3-yl]-2-thienyl]methyl]cyclobutanecarboxamide], the inhibition of growth at 20 ppm in test [2] was at least 80%. Also, the pest or weed control at 200 ppm in test [3] is at least 80%. Turning to `CC(C)CC(=O)C(=O)N(Cc1ccc(-c2noc(C(F)(F)F)n2)s1)C1CC1` [Compound 6.58, N-cyclopropyl-4-methyl-2-oxo-N-[[5-[5-(trifluoromethyl)-1,2,4-oxadiazol-3-yl]-2-thienyl]methyl]pentanamide], in test [2], the inhibition of growth at 20 ppm is at least 80%. For the same compound, the pest or weed control at 200 ppm in test [3] is at least 80%. For the compound `O=S(=O)(Cc1ccccc1)N(Cc1ccc(-c2noc(C(F)(F)F)n2)s1)C1CC1` [Compound 6.33, N-cyclopropyl-1-phenyl-N-[[5-[5-(trifluoromethyl)-1,2,4-oxadiazol-3-yl]-2-thienyl]methyl]methanesulfonamide], the inhibition of growth at 20 ppm in test [2] was at least 80%. In test [3], the pest or weed control at 200 ppm is at least 80%. Take `CCCS(=O)(=O)N(Cc1ccc(-c2noc(C(F)(F)F)n2)s1)C1CC1` [Compound 6.39, N-cyclopropyl-N-[[5-[5-(trifluoromethyl)-1,2,4-oxadiazol-3-yl]-2-thienyl]methyl]propane-1-sulfonamide]: the inhibition of growth at 20 ppm in test [2] is at least 80%. For the same compound, the pest or weed control at 200 ppm in test [3] was at least 80%. Consider `CON(Cc1ccc(-c2noc(C(F)(F)F)n2)s1)S(=O)(=O)C1CC1` [Compound 1.37, N-methoxy-N-[[5-[5-(trifluoromethyl)-1,2,4-oxadiazol-3-yl]-2-thienyl]methyl]cyclopropanesulfonamide], for which, in test [2], the inhibition of growth at 20 ppm was at least 80%. In addition, the pest or weed control at 200 ppm in test [3] is at least 80%. Regarding `CN(Cc1ccc(-c2noc(C(F)(F)F)n2)s1)C(=O)c1ccccc1Cl` [Compound 5.17, 2-chloro-N-methyl-N-[[5-[5-(trifluoromethyl)-1,2,4-oxadiazol-3-yl]-2-thienyl]methyl]benzamide], the inhibition of growth at 20 ppm in test [2] was at least 80%. The pest or weed control at 200 ppm in test [3] was at least 80%.

For the compound `CC(C)N(Cc1ccc(-c2noc(C(F)(F)F)n2)s1)C(=O)c1ccccc1Cl` [Compound 5.26, 2-chloro-N-isopropyl-N-[[5-[5-(trifluoromethyl)-1,2,4-oxadiazol-3-yl]-2-thienyl]methyl]benzamide], in test [2], the inhibition of growth at 20 ppm was at least 80%. Moreover, the pest or weed control at 200 ppm in test [3] is at least 80%. Consider `CS(=O)(=O)N(Cc1ccc(-c2noc(C(F)(F)F)n2)s1)C1CC1` [Compound 6.1, N-cyclopropyl-N-[[5-[5-(trifluoromethyl)-1,2,4-oxadiazol-3-yl]-2-thienyl]methyl]methanesulfonamide], for which, in test [2], the inhibition of growth at 20 ppm is at least 80%. In test [3], the pest or weed control at 200 ppm is at least 80%. Consider `O=C(C1CCOC1)N(Cc1ccc(-c2noc(C(F)(F)F)n2)s1)OCC(F)F` (stereo not shown) [Compound 5.46, N-(2,2-difluoroethoxy)-N-[[5-[5-(trifluoromethyl)-1,2,4-oxadiazol-3-yl]-2-thienyl]methyl]tetrahydrofuran-3-carboxamide], for which the inhibition of growth at 20 ppm in test [2] is at least 80%. Further, the pest or weed control at 200 ppm in test [3] is at least 80%.
